Blank lines part the entries; values can stand above or below the compound they belong to.
Tests used:
[1] = system: H157; test: SRB antiproliferative assay, H157; type: cell-based; conditions: Homo sapiens, NCI-H157, 48 h, read-out: IC50 H157
Protocol: Cancer cells (6 × 10^3 per well) were inoculated into 96-well plates. The treatment was carried out for 48 h, followed by SRB staining, and the absorption value was measured at 540 nm by a microplate reader. SAHA was used as a positive control, and the independent experiment was performed three times.

[2] = system: MDA-MB-231 cells; test: Apoptosis analysis (annexin V, flow cytometry); conditions: 48 h
Protocol: Briefly, cell apoptosis analysis was measured by annexin V FITC/PI assay using Annexin v-PE/7-AAD Apoptosis Detection kit (BD). […] After 48 h, the drug-treated cells were washed three times with PBS; the cell suspension was collected and centrifuged; and the supernatant was removed.

[3] = system: MDA-MB-231 cells; test: Cell cycle arrest analysis (PI, flow cytometry); conditions: for cell cycle arrest: MDA-MB-231
Protocol: After 24 h of cell cycle treatment, the cells were washed three times with PBS, and the cell suspension was collected, centrifuged again, and then added to an ethanol fixative (70%) and placed in a refrigerator for overnight storage. After washing, the dye was added and stained with PI containing RNaseA solution for 30 min at 37 °C, and then analyzed by FACS.

[4] = system: human lung epithelial cells (Beas-2B); test: Antiproliferative activity against normal cells, Beas-2B; type: cell-based; conditions: read-out: Antiproliferative IC50 Beas-2B
Text: (§1) Two normal cell lines were selected: human lung epithelial cells (Beas-2B) and human liver epithelial cells (L-02).

[5] = system: human liver epithelial cells (L-02); test: Antiproliferative activity against normal cells, L-02; type: cell-based; conditions: Epithelial cell, read-out: Antiproliferative IC50 L-02
Text: as §1

[6] = system: acetyl-histone H3; test: Western blot analysis, acetyl-histone H3; type: cell-based, human; conditions: MDA-MB-231, 1, 2 and 5 µM, 48 h
Protocol: (§2) Based on the aforementioned results, western blot analysis was further performed by immunoblotting assay (β-actin as the negative control).
(§3) Briefly, MDA-MB-231 cells were lysed in lysis buffer (50 mM Tris-HCl pH 8.0, 5 mM EDTA, 100 mM NaCl, 0.5% NP-40, 1 mM PMSF) and then centrifuged for 10 min at 12,000 r, and the insoluble debris was discarded. Cell lysates were further analyzed with SDS-PAGE and western blotting with indicated antibodies. After treatment with 13a and 13c for indicated times, cells were harvested with RIPA buffer (150 mM sodium chloride, 1% Triton X-100, 0.5% sodium deoxycholate, 0.1% SDS, 50 mM Tris and cocktails of protease and phosphatase inhibitors) for 10 min at room temperature and boiled for another 10 min. Equal amounts of total proteins (35 μg) underwent 15% SDS-PAGE and were electroblotted onto the polyvinylidene difluoride (PVDF) membrane. The membrane was blocked with 5% (w/v) fat-free dry milk in PBS-Tween 20 (PBST; 0.05%) for 1 h and incubated with primary antibody (1:1000 in PBST) at 4 °C overnight. […] The relative quantity of proteins was analyzed via the Image J software (NIH, Bethesda, MD, USA).
(§4) (B) Quantitative analysis. The relative levels of Ac-H3 and Ac-H4 used to control β-actin were determined by densimetric scanning.

[7] = system: acetyl-histone H4; test: Western blot analysis, acetyl-histone H4; type: cell-based, human; conditions: MDA-MB-231, 1, 2 and 5 µM, 48 h
Protocol: as §2, §3, §4

[8] = system: MDA-MB-231 cells; test: Colony formation assay; conditions: MDA-MB-231, seven days, compared with SAHA
Protocol: One week after the addition of the drugs, the medium was removed. The cells were then washed three times with PBS and fixed in methanol for 5 min. The cells were lastly stained with 1% crystal violet (Beyotime) for 15 min and washed with PBS. Images were collected using a scanning apparatus (Canon, Tokyo, Japan).

[9] = system: MDA-MB-231; test: SRB antiproliferative assay, MDA-MB-231; type: cell-based; conditions: Homo sapiens, MDA-MB-231, 48 h, read-out: IC50 MDA-MB-231
Protocol: (§5) Cancer cells (6 × 10^3 per well) were inoculated into 96-well plates. The treatment was carried out for 48 h, followed by SRB staining, and the absorption value was measured at 540 nm by a microplate reader.

[10] = system: A549; test: SRB antiproliferative assay, A549; type: cell-based; conditions: Homo sapiens, A549, 48 h, read-out: IC50 A549
Protocol: as §5

[11] = system: MCF-7; test: SRB antiproliferative assay, MCF-7; type: cell-based; conditions: Homo sapiens, MCF7, 48 h, read-out: IC50 MCF-7
Protocol: as §5

[12] = system: solid tumor cell lines; test: Antiproliferative activity, summary over tumor cell lines; type: cell-based; conditions: Homo sapiens, read-out: IC50 values against solid tumor cell lines (range)
Protocol: as §5

[13] = target: HDAC1 (Homo sapiens, UniProt Q13547); test: HDAC1 inhibitory assay (Boc-Lys(Ac)-AMC substrate); type: biochemical; conditions: n ≥ 3, SD <20% of the mean; read-out: IC50 against HDAC1
Protocol: The enzyme inhibitory assay was conducted by Shanghai ChemPartner Corporation (Shanghai, China). […] Then the lysine developer was added to terminate the reaction, and the samples were further incubated at 37 °C for 30 min. […] Three independent experiments with triplicate were carried out.

Chain of HDAC1 (Q13547 whole entry): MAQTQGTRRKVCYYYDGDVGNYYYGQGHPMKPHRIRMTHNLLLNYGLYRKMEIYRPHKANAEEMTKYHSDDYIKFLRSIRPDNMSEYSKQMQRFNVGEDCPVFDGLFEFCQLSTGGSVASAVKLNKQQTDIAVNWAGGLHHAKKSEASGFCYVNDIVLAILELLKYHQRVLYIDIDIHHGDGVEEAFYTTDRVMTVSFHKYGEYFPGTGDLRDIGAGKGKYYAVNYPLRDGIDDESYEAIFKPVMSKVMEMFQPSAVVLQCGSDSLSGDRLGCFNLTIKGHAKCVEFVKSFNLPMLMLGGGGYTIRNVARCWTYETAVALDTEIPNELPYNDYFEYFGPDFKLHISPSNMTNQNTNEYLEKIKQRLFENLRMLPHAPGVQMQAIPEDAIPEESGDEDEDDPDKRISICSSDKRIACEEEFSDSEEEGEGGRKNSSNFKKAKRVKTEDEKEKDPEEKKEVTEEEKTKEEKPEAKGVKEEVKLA

SMILES: O=C(CCCCCCC(=O)Nc1ccccc1)NO [Compound 1, vorinostat, reference compound]
IC50 [1]: 1.66 ± 0.14 µM | cell apoptosis ([2]; MDA-MB-231, 1 µM): 7.3% | cell apoptosis ([2]; MDA-MB-231, 2 µM): 12.6% | cells in G2/M phase ([3]; MDA-MB-231, 1 μM, 24 h): 11.02%

SMILES: CCCOc1ccc2c(OCCCCCCCC(=O)NO)cc(=O)oc2c1 [Compound 13a, N-Hydroxy-8-((2-oxo-7-propoxy-2H-benzopyran-4-yl)oxy)octanoic acid]
IC50 [1]: 1.04 ± 0.08 µM | IC50 [4]: > 50 µM | IC50 [5]: > 50 µM | acetylation level of histone H3 [6]: increased the acetylation levels of histone H3 and H4 in a clearly dose-dependent manner | acetylation level of histone H4 [7]: increased the acetylation levels of histone H3 and H4 in a clearly dose-dependent manner | inhibition of colony formation [8]: significant inhibition of the colony formation more potently than SAHA | cell apoptosis ([2]; MDA-MB-231, 1 µM): 13.24% | cell apoptosis ([2]; MDA-MB-231, 2 µM): 18.01% | cell cycle arrest [3]: arrested MDA-MB-231 cells in a dose-dependent manner

SMILES: CCCCOc1ccc2c(OCCCCCCCC(=O)NO)cc(=O)oc2c1 [Compound 13b, N-Hydroxy-8-((7-butoxy-2-oxo-2H-benzopyran-4-yl)oxy)octanoic acid]
IC50 [9]: 1.97 ± 0.56 µM | IC50 [1]: 1.2 ± 0.17 µM | IC50 [10]: 4.09 ± 1.54 µM | IC50 [11]: 2.93 ± 0.49 µM | IC50 [4]: > 50 µM | IC50 [5]: > 20 µM

SMILES: COCCOc1ccc2c(OCCCCCCCC(=O)NO)cc(=O)oc2c1 [Compound 13c, N-Hydroxy-8-((7-(2-methoxyethoxy)-2-oxo-2H-chromen-4-yl)oxy)octanoic acid]
IC50 [1]: 0.59 ± 0.03 µM | IC50 [4]: > 100 µM | IC50 [5]: > 100 µM | IC50 [12]: 0.36 to 2.91 µM | acetylation level of histone H3 [6]: increased the acetylation levels of histone H3 and H4 in a clearly dose-dependent manner | acetylation level of histone H4 [7]: increased the acetylation levels of histone H3 and H4 in a clearly dose-dependent manner | inhibition of colony formation [8]: significant inhibition of the colony formation more potently than SAHA | cell apoptosis ([2]; MDA-MB-231, 1 µM): 19.26% | cell apoptosis ([2]; MDA-MB-231, 2 µM): 25.14% | cell cycle arrest [3]: arrested MDA-MB-231 cells in a dose-dependent manner

SMILES: COCCCOc1ccc2c(OCCCCCCCC(=O)NO)cc(=O)oc2c1 [Compound 13d, N-Hydroxy-8-((7-(3-methoxypropoxy)-2-oxo-2H-chromen-4-yl)oxy)octanoic acid]
IC50 [9]: 1.7 ± 0.39 µM | IC50 [1]: 2.36 ± 0.5 µM | IC50 [10]: 4.11 ± 0.65 µM | IC50 [11]: 5.23 ± 1.63 µM | IC50 [4]: > 20 µM | IC50 [5]: > 20 µM

SMILES: O=C(CCCCCCCOc1cc(=O)oc2cc(OCC3CCCCC3)ccc12)NO [Compound 13g]
IC50 [13]: 0.00501 µM

SMILES: O=C(CCCCCCCOc1cc(=O)oc2cc(OCc3c(F)cccc3F)ccc12)NO [Compound 14m, N-Hydroxy-8-((7-((2,6-difluorobenzyl)oxy)2-oxo-2H-chromen-4-yl)oxy)octanoic acid]
IC50 [9]: 1.95 ± 0.29 µM | IC50 [1]: 4.81 ± 0.8 µM | IC50 [10]: 7.58 ± 2.05 µM | IC50 [11]: 6.05 ± 1.33 µM

Second part, the compound after the results:

IC50 [13]: 0.00159 µM
SMILES: O=C(CCCCCCCOc1cc(=O)oc2cc(OCc3ccccc3[N+](=O)[O-])ccc12)NO [Compound 14b, N-Hydroxy-8-((7-((2-nitrobenzyl)oxy)-2-oxo-2H-chromen-4-yl)oxy)octanoic acid]

IC50 [13]: 0.00197 µM
SMILES: O=C(CCCCCCCOc1cc(=O)oc2cc(OCc3cccc([N+](=O)[O-])c3)ccc12)NO [Compound 14c, N-Hydroxy-8-((7-((3-nitrobenzyl)oxy)-2-oxo-2H-chromen-4-yl)oxy)octanoic acid]

IC50 [13]: 0.00172 µM
SMILES: O=C(CCCCCCCOc1cc(=O)oc2cc(OCc3ccc([N+](=O)[O-])cc3)ccc12)NO [Compound 14d, N-Hydroxy-8-((7-((4-nitrobenzyl)oxy)2-oxo-2H-chromen-4-yl)oxy)octanoic acid]

IC50 [13]: 0.0024 µM
SMILES: O=C(CCCCCCCOc1cc(=O)oc2cc(OCc3ccccc3Cl)ccc12)NO [Compound 14h, N-Hydroxy-8-((7-((2-chlorobenzyl)oxy)-2-oxo-2H-chromen-4-yl)oxy)octanoic acid]

IC50 [13]: 0.00425 µM
SMILES: O=C(CCCCCCCOc1cc(=O)oc2cc(OCc3cccc(Cl)c3)ccc12)NO [Compound 14i, N-Hydroxy-8-((7-((3-chlorobenzyl)oxy)-2-oxo-2H-chromen-4-yl)oxy)octanoic acid]

IC50 [13]: 0.00252 µM
SMILES: O=C(CCCCCCCOc1cc(=O)oc2cc(OCc3ccc(Cl)cc3)ccc12)NO [Compound 14j, N-Hydroxy-8-((7-((4-chlorobenzyl)oxy)-2-oxo-2H-chromen-4-yl)oxy)octanoic acid]

IC50 [13]: 0.00302 µM
SMILES: O=C(CCCCCCCOc1cc(=O)oc2cc(OCc3ccc(Br)cc3)ccc12)NO [Compound 14k, N-Hydroxy-8-((7-((4-bromobenzyl)oxy)2-oxo-2H-chromen-4-yl)oxy)octanoic acid]

IC50 [13]: 0.0055 µM
SMILES: O=C(CCCCCCCOc1cc(=O)oc2cc(OCc3ccc(C(F)(F)F)cc3)ccc12)NO [Compound 14l]

IC50 [13]: 0.00322 µM
SMILES: O=C(CCCCCCCOc1cc(=O)oc2cc(OCc3ccc(F)cc3Cl)ccc12)NO [Compound 14o, N-Hydroxy-8-((7-((2-chloro-4-fluorobenzyl)oxy)2-oxo-2H-chromen-4-yl)oxy)octanoic acid]

IC50 [13]: 0.00156 µM
SMILES: Cc1ccccc1COc1ccc2c(OCCCCCCCC(=O)NO)cc(=O)oc2c1 [Compound 14p, N-Hydroxy-8-((7-((2-methylbenzyl)oxy)-2-oxo-2H-chromen-4-yl)oxy)octanoic acid]

IC50 [13]: 0.00295 µM
SMILES: Cc1cccc(COc2ccc3c(OCCCCCCCC(=O)NO)cc(=O)oc3c2)c1 [Compound 14q, N-Hydroxy-8-((7-((3-methylbenzyl)oxy)-2-oxo-2H-chromen-4-yl)oxy)octanoic acid]

IC50 [13]: 0.0025 µM
SMILES: Cc1ccc(COc2ccc3c(OCCCCCCCC(=O)NO)cc(=O)oc3c2)cc1 [Compound 14r, N-Hydroxy-8-((7-((4-methylbenzyl)oxy)2-oxo-2H-chromen-4-yl)oxy)octanoic acid]

IC50 [13]: 0.00519 µM
SMILES: Cc1cccc(C)c1COc1ccc2c(OCCCCCCCC(=O)NO)cc(=O)oc2c1 [Compound 14s, N-Hydroxy-8-((7-((2,6-dimethylbenzyl)oxy)-2-oxo-2H-chromen-4-yl)oxy)octanoic acid]

— article PMC7036849, “Development of Coumarin-Based Hydroxamates as Histone Deacetylase Inhibitors with Antitumor Activities” (Molecules, 2020)
